Assays:
NCI-H522 = assay: NCI DTP human tumor cell line screen (SRB); format: cell-based; settings: Non-Small Cell Lung Cancer, 10 μM, 48 h
Description: (§1) Representative compounds of the invention, prepared as described in EXAMPLES 1-6, were submitted to the Developmental Therapeutics Program of the United States National Cancer Institute (NCl) to screen for anti-cancer activity. The anti-cancer activities of the six compounds were tested against approximately 60 human tumor cell lines representing leukemia, melanoma, and cancers of the lung, colon, breast, ovary, kidney, prostate, and brain. The following screening methodology was provided by the NCl. […] For experimental screens, cells were inoculated into 96 well microtiter plates in 100 μL at plating densities ranging from 5,000 to 40,000 cells/well depending on the doubling time of individual cell lines. After cell inoculation, the microtiter plates were incubated at 37° C., 5% carbon dioxide, 95% air and 100% relative humidity for 24 hours prior to addition of the compounds. After 24 hours of incubation, two plates of each cell line were fixed in situ with trichloroacetic acid (TCA) to represent a measurement of the cell population for each cell line at the time of compound addition (Tz). The compounds were solubilized in dimethyl sulfoxide at 400-fold the desired final maximum test concentration and stored frozen prior to use. At the time of drug addition, frozen aliquots of the compounds thawed and diluted with complete medium containing 50 μg/ml gentamicin. Aliquots of 100 μl of these different compound dilutions were added to the appropriate microtiter wells already containing 100 μl of medium, resulting in the required final compound concentration of 10 μM. Following compound addition, the plates were incubated for an additional 48 h at 37° C., 5% carbon dioxide, 95% air, and 100% relative humidity. For adherent cells, the assay was terminated by the addition of cold TCA. Cells were fixed in situ by the gentle addition of 50 μl of cold 50% (w/v) TCA (final concentration, 10% TCA) and incubated for 60 minutes at 4° C. The supernatant was discarded, and the plates were washed five times with tap water and air dried. Sulforhodamine B (SRB) solution (100 μl) at 0.4% (w/v) in 1% acetic acid was added to each well, and plates were incubated for 10 minutes at room temperature. After staining, unbound dye was removed by washing five times with 1% acetic acid and the plates were air dried. Bound stain was subsequently solubilized with 10 mM trizma base, and the absorbance was read on an automated plate reader at a wavelength of 515 nm. For suspension cells, the methodology was the same except that the assay was terminated by fixing settled cells at the bottom of the wells by gently adding 50 μl of 80% TCA (final concentration, 16% TCA). Using the three absorbance measurements [time zero, (Tz), control growth, (C), and test growth in the presence of compound (Ti)], the percentage growth was calculated at each of the compound concentrations levels. Percentage growth inhibition was calculated with the following algorithms: [(Ti−Tz)/(C−Tz)]×100 for concentrations for which Ti>/=Tz [(Ti−Tz)/Tz]×100 for concentrations for which Ti<Tz The results of the NCl in vitro anticancer screening with six compounds against various human tumor cell lines are presented below in Tables 2-7. […] The growth percent mean, delta, and range for each compound are given below.

OVCAR-5 = assay: NCI DTP human tumor cell line screen (SRB); format: cell-based; settings: Ovarian Cancer, 10 μM, 48 h
Description: as §1

SF-539 = assay: NCI DTP human tumor cell line screen (SRB); format: cell-based; settings: CNS Cancer, 10 μM, 48 h
Description: as §1

CAKI-1 = assay: NCI DTP human tumor cell line screen (SRB); format: cell-based; settings: Renal Cancer, 10 μM, 48 h
Description: as §1

MCF7 = assay: NCI DTP human tumor cell line screen (SRB); format: cell-based; settings: Breast Cancer, 10 μM, 48 h
Description: as §1

ACHN = assay: NCI DTP human tumor cell line screen (SRB); format: cell-based; settings: Renal Cancer, 10 μM, 48 h
Description: as §1

A498 = assay: NCI DTP human tumor cell line screen (SRB); format: cell-based; settings: Renal Cancer, 10 μM, 48 h
Description: as §1

RPMI-8226 = assay: NCI DTP human tumor cell line screen (SRB); format: cell-based; settings: Leukemia, 10 μM, 48 h
Description: as §1

U251 = assay: NCI DTP human tumor cell line screen (SRB); format: cell-based; settings: CNS Cancer, 10 μM, 48 h
Description: as §1

OVCAR-4 = assay: NCI DTP human tumor cell line screen (SRB); format: cell-based; settings: Ovarian Cancer, 10 μM, 48 h
Description: as §1

M14 = assay: NCI DTP human tumor cell line screen (SRB); format: cell-based; settings: Melanoma, 10 μM, 48 h
Description: as §1

UO-31 = assay: NCI DTP human tumor cell line screen (SRB); format: cell-based; settings: Renal Cancer, 10 μM, 48 h
Description: as §1

786-0 = assay: NCI DTP human tumor cell line screen (SRB); format: cell-based; settings: Renal Cancer, 10 μM, 48 h
Description: as §1

PC-3 = assay: NCI DTP human tumor cell line screen (SRB); format: cell-based; settings: Prostate Cancer, 10 μM, 48 h
Description: as §1

HCT-116 = assay: NCI DTP human tumor cell line screen (SRB); format: cell-based; settings: Colon Cancer, 10 μM, 48 h
Description: as §1

NCI-H226 = assay: NCI DTP human tumor cell line screen (SRB); format: cell-based; settings: Non-Small Cell Lung Cancer, 10 μM, 48 h
Description: as §1

NCI-H460 = assay: NCI DTP human tumor cell line screen (SRB); format: cell-based; settings: Non-Small Cell Lung Cancer, 10 μM, 48 h
Description: as §1

NCI/ADR-RES = assay: NCI DTP human tumor cell line screen (SRB); format: cell-based; settings: Breast Cancer, 10 μM, 48 h
Description: as §1

SF-268 = assay: NCI DTP human tumor cell line screen (SRB); format: cell-based; settings: CNS Cancer, 10 μM, 48 h
Description: as §1

HL-60(TB) = format: cell-based, human; settings: Leukemia, 10 μM, 48 h
Description: The human tumor cell lines of the cancer screening panel were grown in RPMI 1640 medium containing 5% fetal bovine serum and 2 mM L-glutamine. For experimental screens, cells were inoculated into 96 well microtiter plates in 100 μL at plating densities ranging from 5,000 to 40,000 cells/well depending on the doubling time of individual cell lines. After cell inoculation, the microtiter plates were incubated at 37° C., 5% carbon dioxide, 95% air and 100% relative humidity for 24 hours prior to addition of the compounds.

[1] = tested on: approximately 60 human tumor cell lines; assay: NCI DTP human tumor cell line screen, whole panel statistics; format: cell-based; settings: for inhibitory activities against cancer cells: DTP human tumor cell line screen, non-small cell lung, colon, breast, ovarian, leukemia, renal, melanoma, prostate, CNS cancer; for mean growth percent: mean over all cell lines tested; for mean growth percent / delta value (growth percent) / range (growth percent): 10 μM, 48 h; for delta value (growth percent) / range (growth percent): over all cell lines tested
Description: as §1

KM12 = assay: NCI DTP human tumor cell line screen (SRB); format: cell-based; settings: Colon Cancer, 10 μM, 48 h
Description: as §1

NCI-H322M = assay: NCI DTP human tumor cell line screen (SRB); format: cell-based; settings: Non-Small Cell Lung Cancer, 10 μM, 48 h
Description: as §1

MALME-3M = assay: NCI DTP human tumor cell line screen (SRB); format: cell-based; settings: Melanoma, 10 μM, 48 h
Description: as §1

Row | SMILES | Growth Percent (OVCAR-5) [%] | Growth Percent (SF-539) [%] | Growth Percent (CAKI-1) [%] | Growth Percent (MCF7) [%] | Growth Percent (ACHN) [%] | Growth Percent (A498) [%] | Growth Percent (RPMI-8226) [%] | Growth Percent (U251) [%] | Growth Percent (OVCAR-4) [%] | Growth Percent (UO-31) [%] | Growth Percent (786-0) [%] | Growth Percent (PC-3) [%] | Growth Percent (HCT-116) [%] | Growth Percent (NCI-H226) [%] | Growth Percent (NCI-H460) [%] | Growth Percent (NCI/ADR-RES) [%] | Growth Percent (SF-268) [%] | Growth Percent (HL-60(TB)) [%] | inhibitory activities against cancer cells [1] | mean growth percent [1] [%] | other results
1 | CC1CCC2C(C)C(OCc3ccc(C(=O)NN=Cc4ccccc4O)o3)OC3OC4(C)CCC1C32OO4 (stereo not shown) [ART-Furan-Sal, N′-(2-hydroxybenzylidene)-5-(dihydroxyartemisinin-methyl)-furan-2-carbohydrazide] | 28.70 | −11.48 | 17.44 | 1.18 | 7.80 | 12.88 | 13.00 | 12.24 | 12.86 | −35.28 | −22.22 | 28.01 | 13.81 | 13.93 | −26.28 | 11.14 | −0.43 | −43.79 | inhibitory activities against several types of cancer cells | 6.1 | Growth Percent (NCI-H522): −10.76%; Growth Percent (M14): −48.54%; delta value (growth percent) [1]: 54.64; range (growth percent) [1]: 89.31; mean growth percent ([1]; summary text): 6.1%
2 | CC1CCC2C(C)C(OCCn3cc(C(=O)NN=Cc4ccccc4O)nn3)OC3OC4(C)CCC1C32OO4 (stereo not shown) [ART-Triazole-Sal, N′-(2-hydroxybenzylidene)-1-(dihydroxyartemisinin-ethyl)-1H-1,2,3-triazole-4-carbohydrazide] | 41.28 | 14.19 | 40.15 | 13.62 | 15.69 | 50.94 | 18.69 | 24.89 | 15.89 | −28.61 | 1.80 | 38.28 | 20.87 | 26.98 | 2.83 | 15.88 | 21.15 | −31.16 | inhibitory activities against several types of cancer cells | 22.31 | Growth Percent (M14): 3.07%; Growth Percent (KM12): 29.83%; Growth Percent (NCI-H322M): 27.06%; Growth Percent (MALME-3M): 42.33%; delta value (growth percent) [1]: 53.47; range (growth percent) [1]: 83.7; mean growth percent ([1]; summary text): 22.31%
3 | Cc1ncc(CO)c(C=NNC(=O)c2ccc(COC3OC4OC5(C)CCC6C(C)CCC(C3C)C46OO5)cc2)c1O (stereo not shown) [ART-Phe-Pyridoxal, N′-(5-hydroxy-3-hydroxymethyl-2-methyl-4-pyridylidene)-4-(dihydroxyartemisinin-methyl)-phenyl carbohydrazide] | 44.98 | −20.49 | −12.33 | 1.55 | 7.45 | −36.78 | 9.56 | 17.87 | 21.42 | 4.39 | −19.54 | 31.12 | 15.30 | 4.49 | −3.33 | 44.16 | 1.39 | −4.98 | inhibitory activities against several types of cancer cells | 7.85 | Growth Percent (NCI-H522): 38.92%; Growth Percent (KM12): 17.87%; Growth Percent (NCI-H322M): 14.34%; Growth Percent (MALME-3M): −17.79%; delta value (growth percent) [1]: 51.68; range (growth percent) [1]: 88.81; mean growth percent ([1]; summary text): 7.85%
4 | CC1CCC2C(C)C(OCc3ccc(C(=O)NN=Cc4ccccc4O)nc3)OC3OC4(C)CCC1C32OO4 (stereo not shown) [ART-Pyr-Sal, N′-(2-hydroxybenzylidene)-5-(dihydroxyartemisinin-methyl)-2-pyridine carbohydrazide] | 55.16 | −29.69 | 18.48 | 13.61 | 10.64 | 5.27 | 13.76 | 14.70 | 23.04 | 0.04 | −17.58 | 21.62 | 18.34 | 1.83 | 0.12 | 6.72 | 12.40 | 5.22 | inhibitory activities against several types of cancer cells | 12.83 | Growth Percent (NCI-H522): 10.19%; Growth Percent (M14): −9.91%; Growth Percent (KM12): 29.31%; Growth Percent (NCI-H322M): 31.89%; Growth Percent (MALME-3M): 8.61%; delta value (growth percent) [1]: 42.97; range (growth percent) [1]: 85.3
5 | CC1CCC2C(C)C(OCc3ccc(C(=O)NN=Cc4ccccc4O)cc3)OC3OC4(C)CCC1C32OO4 (stereo not shown) [ART-Phe-Sal, N′-(2-hydroxybenzylidene)-4-(dihydroxyartemisinin-methyl)-phenyl carbohydrazide] | 49.55 | −18.69 | 11.04 | 12.70 | 10.40 | 0.33 | 22.87 | 17.18 | 17.87 | −17.67 | −12.09 | 31.46 | 13.24 | 10.80 | 0.59 | 21.55 | 10.84 | −54.70 | inhibitory activities against several types of cancer cells | 10.55 | Growth Percent (NCI-H522): 5.74%; Growth Percent (M14): −37.45%; Growth Percent (KM12): 23.72%; Growth Percent (NCI-H322M): 23.76%; Growth Percent (MALME-3M): 16.70%; delta value (growth percent) [1]: 67.26; range (growth percent) [1]: 112.98
